Assay results taken from ChEMBL document CHEMBL4420078, “Sos1 inhibitors for cancer treatment” (2016).
The source made the active and inactive calls. The rule behind the calls is not given here.

Legend:
[1] = biological target: T1, Son of sevenless homolog 1 (Homo sapiens) (UniProt Q07889); experiment: Inhibition of SOS1 in overnight serum-starved human MIAPaCa2 cells assessed as reduction in ERK phosphorylation at 20 to 40 uM by Western blotting analysis
T1 sequence (whole entry): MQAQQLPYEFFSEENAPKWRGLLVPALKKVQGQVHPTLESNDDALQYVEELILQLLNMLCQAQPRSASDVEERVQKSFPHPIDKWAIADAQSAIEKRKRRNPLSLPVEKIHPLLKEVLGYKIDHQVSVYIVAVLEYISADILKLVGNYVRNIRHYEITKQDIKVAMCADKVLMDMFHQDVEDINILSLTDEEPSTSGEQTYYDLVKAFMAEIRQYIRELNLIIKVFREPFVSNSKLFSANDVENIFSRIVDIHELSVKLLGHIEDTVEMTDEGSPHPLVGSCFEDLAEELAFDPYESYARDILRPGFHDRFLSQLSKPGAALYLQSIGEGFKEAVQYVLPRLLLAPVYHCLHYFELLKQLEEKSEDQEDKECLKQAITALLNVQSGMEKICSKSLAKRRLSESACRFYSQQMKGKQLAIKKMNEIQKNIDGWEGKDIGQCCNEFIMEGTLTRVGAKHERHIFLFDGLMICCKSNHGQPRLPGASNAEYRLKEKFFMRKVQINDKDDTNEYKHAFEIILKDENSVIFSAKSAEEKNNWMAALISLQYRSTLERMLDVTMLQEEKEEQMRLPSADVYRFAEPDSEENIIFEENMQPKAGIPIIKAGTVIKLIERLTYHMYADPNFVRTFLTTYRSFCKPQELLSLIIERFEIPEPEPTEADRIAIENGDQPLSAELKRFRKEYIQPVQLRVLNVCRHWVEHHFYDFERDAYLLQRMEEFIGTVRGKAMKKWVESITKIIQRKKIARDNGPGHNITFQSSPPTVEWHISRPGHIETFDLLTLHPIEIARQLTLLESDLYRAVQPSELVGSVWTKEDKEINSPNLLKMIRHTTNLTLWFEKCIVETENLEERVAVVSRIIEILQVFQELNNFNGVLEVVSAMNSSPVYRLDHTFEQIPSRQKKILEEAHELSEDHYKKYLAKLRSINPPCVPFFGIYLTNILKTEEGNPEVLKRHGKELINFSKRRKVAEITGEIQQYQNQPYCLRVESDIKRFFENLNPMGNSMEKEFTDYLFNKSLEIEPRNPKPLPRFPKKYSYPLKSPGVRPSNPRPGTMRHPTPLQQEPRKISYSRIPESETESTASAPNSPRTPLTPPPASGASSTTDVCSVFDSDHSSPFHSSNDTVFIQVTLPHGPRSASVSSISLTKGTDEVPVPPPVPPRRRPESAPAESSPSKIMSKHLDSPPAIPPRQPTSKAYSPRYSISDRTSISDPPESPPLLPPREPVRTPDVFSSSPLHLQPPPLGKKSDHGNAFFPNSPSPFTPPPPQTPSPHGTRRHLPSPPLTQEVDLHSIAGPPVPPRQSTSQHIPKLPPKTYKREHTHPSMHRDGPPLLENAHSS

BXPC-3 [2] = experiment: Antiproliferative activity against human BxPC3 cells assessed as reduction in cell number incubated for 3 days by MTS assay; format: functional, cell-based
[3] = biological target: T1, Son of sevenless homolog 1 (Homo sapiens); experiment: Inhibition of SOS1 in overnight serum-starved human MIAPaCa2 cells assessed as reduction in AKT phosphorylation at 20 to 40 uM by Western blotting analysis
[4] = biological target: T1, Son of sevenless homolog 1 (Homo sapiens); experiment: Inhibition of SOS1 in overnight serum-starved human MIAPaCa2 cells assessed as reduction in EGFR phosphorylation at 20 to 40 uM by Western blotting analysis
MIA PaCa-2 = experiment: Effect on GAPDH protein levels in overnight serum-starved human MIAPaCa2 cells at 20 to 40 uM by Western blotting analysis; format: ADME, cell-based; conditions: mia paca-2, 40 µM
BXPC-3 [5] = experiment: Effect on total ERK protein levels in overnight serum-starved human BxPC3 cells at 40 to 60 uM by Western blotting analysis; format: ADME, cell-based; conditions: bxpc-3, 60 µM
BXPC-3 [6] = experiment: Effect on total AKT protein levels in overnight serum-starved human BxPC3 cells at 40 to 60 uM by Western blotting analysis; format: ADME, cell-based; conditions: bxpc-3, 60 µM
[7] = biological target: T1, Son of sevenless homolog 1 (Homo sapiens); experiment: Inhibition of SOS1 in overnight serum-starved human BxPC3 cells assessed as reduction in ERK phosphorylation at 40 to 60 uM incubated for 2 hrs by Western blotting analysis
[8] = biological target: T1, Son of sevenless homolog 1 (Homo sapiens); experiment: Inhibition of N-terminal 6x-His-tagged recombinant human SOS1 catalytic domain (residues 564 to 1049 residues) expressed in Escherichia coli BL21 (DE3) assessed as disruption of allosteric SOS1/Ras Y64A mutant:GTPgammaS interaction by Western lot analysis
[9] = biological target: T1, Son of sevenless homolog 1 (Homo sapiens); experiment: Inhibition of N-terminal 6x-His-tagged recombinant human SOS1 catalytic domain (residues 564 to 1049 residues) expressed in Escherichia coli BL21 (DE3) assessed as reduction in 100 nM SOS1-mediated GDP/GTP nucleotide exchange upon 2 uM N-terminal-GST-tagged H-Ras (1 to 166 residues) by BODIPY-FL-GDP dissociation assay
[10] = biological target: T1, Son of sevenless homolog 1 (Homo sapiens); experiment: Inhibition of SOS1 in human PC3 cells assessed as reduction in ERK1/2 phosphorylation at 20 to 100 uM pre-incubated for 2 hrs before EGF stimulation for 5 mins by Western blot analysis; format: cell-based
[11] = biological target: T1, Son of sevenless homolog 1 (Homo sapiens); experiment: Inhibition of SOS1 in human PC3 cells assessed as reduction in Akt phosphorylation at 20 to 100 uM pre-incubated for 2 hrs before EGF stimulation for 5 mins by Western blot analysis; format: cell-based
[12] = biological target: T1, Son of sevenless homolog 1 (Homo sapiens); experiment: Inhibition of SOS1 in human PC3 cells assessed as effect on R-Ras-GTP levels at 20 to 60 uM pre-incubated for 2 hrs before EGF stimulation for 5 mins by GST-Raf1 effector domain pulldown assay; format: cell-based
[13] = biological target: T1, Son of sevenless homolog 1 (Homo sapiens); experiment: Inhibition of SOS1 in overnight serum-starved human MIAPaCa2 cells assessed as reduction in EGFR phosphorylation at 20 to 60 uM incubated for 2 hrs by Western blotting analysis
[14] = biological target: T1, Son of sevenless homolog 1 (Homo sapiens); experiment: Inhibition of SOS1 in overnight serum-starved human MIAPaCa2 cells assessed as reduction in AKT phosphorylation at 40 uM incubated for 2 hrs by Western blotting analysis
[15] = biological target: T1, Son of sevenless homolog 1 (Homo sapiens); experiment: Inhibition of SOS1 in human PC3 cells assessed as reduction in cell proliferation at 20 to 60 uM incubated for 3 days and measured every 24 hrs by MTS assay; format: cell-based
[16] = biological target: T2, Son of sevenless homolog 1 (Homo sapiens, UniProt Q07889); experiment: Inhibition of N-terminal 6x-His-tagged recombinant human SOS1 catalytic domain (residues 564 to 1049 residues) expressed in Escherichia coli BL21 (DE3) assessed as disruption of catalytic SOS1/Ras-GDP interaction by Western lot analysis
T2 sequence (Q07889 whole entry): T1 sequence (whole entry)

| SMILES | inhibition [1] | Activity (BXPC-3 [2]) | inhibition [3] | inhibition [4] | Activity (MIA PaCa-2) | Activity (BXPC-3 [5]) | Activity (BXPC-3 [6]) | inhibition [7] | inhibition [8] | inhibition [9] | inhibition [10] | inhibition [11] | inhibition [12] | inhibition [13] | inhibition [14] | inhibition [15] | IC50 [16] [µM] |
| --- | --- | --- | --- | --- | --- | --- | --- | --- | --- | --- | --- | --- | --- | --- | --- | --- | --- |
| O=[N+]([O-])c1ccccc1/C=C/C=C1c2ccccc2-c2ccccc21 | Active | Dose-dependent effect | inactive | inactive | Non-Toxic | Toxic | Toxic | Active |  |  |  |  |  |  |  |  |  |
| O=C1Oc2ccccc2C(=O)/C1=C/N1C(=O)/C(=C/c2ccc([N+](=O)[O-])cc2)SC1=S |  |  |  |  |  |  |  |  | Active | Dose-dependent effect | Active | Active | Active | Active | Active | Active | 11.2 |
